Assays:
amyloid-β (1-42) peptide = assay: amyloid-β protein profile by immunoprecipitation and mass spectrometry (IP-MS), protocol of Wang et al.; assay type: cell-based; details: in vitro
Description: (§1) Compounds of the present invention were assayed to determine their effect on the total ration of amyloid-β (1-42) peptide in vitro using an assay protocol substantially similar to that described by Wang et al., J. Biol. Chem. 1996, 50:31894-31902, The Profile of Soluble Amyloid β Protein in Cultured Cell Media, the entirety of which is hereby incorporated herein by reference. This assay quantifies amyloid-β protein using immunoprecipitation and mass spectrometry (IP-MS).

[1] = test system: 7W cells (APPwt) and 7PA2 cells (APPV717F); assay: method of Wang et al. in 7W cells (APPwt) and 7PA2 cells (APPV717F); assay type: cell-based
Description: as §1
Compound 6 was also assayed according to the method described in Wang et al., in 7W cells (APPwt) and 7PA2 cells (APPV717F). The APP717 mutations increase the relative amount of amyloid-β (1-42) peptide. In this assay, it was shown that compound 6 reduces amyloid-β (1-42) peptide while increasing amyloid-β (1-39) peptide.

[2] = stability experiments in solution; assay type: physicochemical
Description: However, it was stable in slightly acidic solution. Therefore, 2609-165-7 was re-processed on the Luna C8 column using 70% MeOH/30% water containing 0.05% AcOH as eluent to give 3.4 mg of compound 6 (2609-172-11).

## CC(=O)O[C@@H]([C@H]1C[C@@H](C)C2=C(O1)[C@H](O)[C@@]1(C)[C@@H]3CC[C@H]4C(C)(C)[C@@H](O[C@@H]5OC[C@@H](O)[C@H](O)[C@H]5O)CC[C@@]45C[C@@]35CC[C@]21C)C(C)(C)O [Compound 6, 24-O-Acetylhydroshengmanol 3-β-D-xylopyranoside (delta-16,17)-enol ether]
amyloid-β (1-42) peptide
  effect on amyloid-β (1-37) peptide: increasing
  effect on amyloid-β (1-39) peptide: increasing
  effect on amyloid-β (1-42) peptide: reduced
[1]
  effect on amyloid-β (1-39) peptide: increasing
  effect on amyloid-β (1-42) peptide: reduces
[2]; MeOH solution which is slightly basic
  stability in solution: deacetylation occurred
[2]; slightly acidic solution
  stability in solution: stable

Reference: patent publication US8263755B2, “Synthesis of compounds useful as modulators of amyloid-beta production” (Satori Pharmaceuticals, Inc., priority 2006, dated 2012)
